Patent US20150344457A1, “METHODS OF INHIBITING PRMT5” (EPIZYME, INC., priority 2012, published 2015)

What was measured:
Z-138 cells [1] = experiment: Z-138 Methylation Assay (In Cell Western for symmetric di-methyl arginine and DNA content); type: cell-based; conditions: Homo sapiens
Outline: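 Symmetric di-methyl arginine signal (800 nm) ratioed to DNA content (700 nm) by In Cell Western after four days of compound treatment of Z-138 suspension cells seeded at 50,000 cells/mL. Percent inhibition set between DMSO and 3 μM reference wells; IC50 curves from triplicates.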

Z-138 cells [2] = experiment: Z-138 Proliferation Assay (Cell Titer Glo, 5 days); type: cell-based; conditions: Homo sapiens
Outline: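 Exponentially growing Z-138 cells (10,000 cells/ml) in RPMI 1640 with 10% FBS are exposed to nine-point 3-fold dilutions (final top concentration 20 μM, 0.2% DMSO) for 5 days at 37° C. Viability is measured as ATP by CellTiter-Glo luminescence. The 50% inhibitory concentration comes from a 4-parameter fit.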

[3] = Table A-2, 96 hours, symmetric di-methyl arginine, read-out: ICW EC50
[4] = 120 h, Table A-2, 5 days, top concentration 20 μM

| Compound | EC50 (Z-138 cells [1]; [3]) | EC50 (Z-138 cells [2]; [4]) | EC50 (Z-138 cells [1]; Table D-2, read-out: ICW EC50) | EC50 (Z-138 cells [2]; Table D-2) |
| --- | --- | --- | --- | --- |
| O=C(COc1cccc(CN2CCOCC2)c1)NCC(O)CN1CCc2ccccc2C1 (centres unmarked) [Compound A75] | < 0.1 µM | 1 to 10 µM | – | – |
| C[C@H](Oc1cccc2cccnc12)C(=O)NC[C@H](O)CN1CCc2ccccc2C1 [Compound A76] | 0.101 to 1 µM | 1 to 10 µM | – | – |
| O=C(COc1ccccc1N1CCOCC1)NC[C@H](O)CN1CCc2ccccc2C1 [Compound A77] | < 0.1 µM | 1 to 10 µM | – | – |
| O=C(COc1ccccc1N1CCNCC1)NCC(O)CN1CCc2ccccc2C1 (centres unmarked) [Compound A79] | 0.101 to 1 µM | 1 to 10 µM | – | – |
| CN1C(=O)COc2cccc(OCC(=O)NCC(O)CN3CCc4ccccc4C3)c21 (centres unmarked) [Compound A80] | 0.101 to 1 µM | 10 to 50 µM | – | – |
| CN1CCOc2cccc(OCC(=O)NCC(O)CN3CCc4ccccc4C3)c21 (centres unmarked) [Compound A81] | < 0.1 µM | 0.101 to 1 µM | – | – |
| Cn1ncc2c(OCC(=O)NCC(O)CN3CCc4ccccc4C3)cccc21 (centres unmarked) [Compound A82] | < 0.1 µM | 1 to 10 µM | – | – |
| O=C(COc1cccc(C(=O)N2CCOCC2)c1)NCC(O)CN1CCc2ccccc2C1 (centres unmarked) [Compound A83] | 0.101 to 1 µM | 10 to 50 µM | – | – |
| CN1CCN(c2ccccc2OCC(=O)NC[C@H](O)CN2CCc3ccccc3C2)CC1 [Compound A84] | 0.101 to 1 µM | 1 to 10 µM | – | – |
| O=C(COc1ccccc1OCCN1CCOCC1)NC[C@H](O)CN1CCc2ccccc2C1 [Compound A86] | 0.101 to 1 µM | 10 to 50 µM | – | – |
| CN(C)CCOc1ccccc1OCC(=O)NC[C@H](O)CN1CCc2ccccc2C1 [Compound A88] | 0.101 to 1 µM | 10 to 50 µM | – | – |
| CC(=O)N1CCN(c2ccccc2OCC(=O)NCC(O)CN2CCc3ccccc3C2)CC1 (centres unmarked) [Compound A90] | 0.101 to 1 µM | 10 to 50 µM | – | – |
| O=C(COc1cccc2c1CCNC2)NCC(O)CN1CCc2ccccc2C1 (centres unmarked) [Compound A91] | 0.101 to 1 µM | 1 to 10 µM | – | – |
| O=C(COc1cccc2nccnc12)NCC(O)CN1CCc2ccccc2C1 (centres unmarked) [Compound A92] | < 0.1 µM | 1 to 10 µM | – | – |
| O=C(COc1cccc(NC2CCOCC2)c1)NCC(O)CN1CCc2ccccc2C1 (centres unmarked) [Compound A93] | < 0.1 µM | 1 to 10 µM | – | – |
| O=C(COc1c(CN2CCOCC2)ccc2cccnc12)NC[C@H](O)CN1CCc2ccccc2C1 [Compound A94] | 0.101 to 1 µM | 10 to 50 µM | – | – |
| O=C(COc1ccc2c(cnn2C2CCNC2)c1)NCC(O)CN1CCc2ccccc2C1 (centres unmarked) [Compound A95] | 0.101 to 1 µM | 10 to 50 µM | – | – |
| Cn1cnc2ccc(-c3cccc(NCC(O)CN4CCc5ccccc5C4)c3)cc21 (centres unmarked) [Compound D102] | – | – | 0.101 to 1 µM | 1 to 10 µM |
| OC(COc1cccc(-c2ccc3ncn(C4CCOCC4)c3c2)c1)CN1CCc2ccccc2C1 (centres unmarked) [Compound D103] | – | – | 0.101 to 1 µM | 1 to 10 µM |
| OC(COc1cccc(-c2ccc3ncn(-c4ccccc4)c3c2)c1)CN1CCc2ccccc2C1 (centres unmarked) [Compound D104] | – | – | 1 to 10 µM | > 20 µM |
| OC(COc1cccc(-c2ccc3ncn(Cc4ccccc4)c3c2)c1)CN1CCc2ccccc2C1 (centres unmarked) [Compound D105] | – | – | 1 to 10 µM | 10 to 40 µM |
| Cn1ncc2ccc(-c3cccc(OCC(O)CN4CCc5ccccc5C4)c3)cc21 (centres unmarked) [Compound D106] | – | – | 1 to 10 µM | > 20 µM |
| OC(COc1cccc(-c2ccc3[nH]ncc3c2)c1)CN1CCc2ccccc2C1 (centres unmarked) [Compound D107] | – | – | 1 to 10 µM | > 20 µM |
| Cn1ncc2cc(-c3cccc(OCC(O)CN4CCc5ccccc5C4)c3)ccc21 (centres unmarked) [Compound D108] | – | – | 1 to 10 µM | 10 to 40 µM |
| O=c1[nH]c2ccc(-c3cccc(OCC(O)CN4CCc5ccccc5C4)c3)cc2[nH]1 (centres unmarked) [Compound D109] | – | – | 0.101 to 1 µM | 10 to 40 µM |
| Cc1ccncc1-c1cccc(OCC(O)CN2CCc3ccccc3C2)c1 (centres unmarked) [Compound D113] | – | – | 0.101 to 1 µM | 10 to 40 µM |
| CN(CC(O)CN1CCc2ccccc2C1)c1cccc(CNC2CCOCC2)c1 (centres unmarked) [Compound D116] | – | – | 1 to 10 µM | > 20 µM |
| Cn1cnc2ccc(-c3cccc(NCC(O)CN4CCc5ccccc5C4)n3)cc21 (centres unmarked) [Compound D117] | – | – | 1 to 10 µM | > 20 µM |

| Compound | EC50 (Z-138 cells [1]; [3]) | EC50 (Z-138 cells [2]; [4]) | EC50 (Z-138 cells [1]; Table D-2, read-out: ICW EC50) | EC50 (Z-138 cells [2]; Table D-2) |
| --- | --- | --- | --- | --- |
| Cn1cnc2ccc(-c3ccnc(NCC(O)CN4CCc5ccccc5C4)c3)cc21 (centres unmarked) [Compound D118] | – | – | 0.101 to 1 µM | 1 to 10 µM |
| Cn1cnc2ccc(-c3ccnc(NCC(O)CN4CCc5ccccc5C4)n3)cc21 (centres unmarked) [Compound D119] | – | – | 0.101 to 1 µM | 1 to 10 µM |
| Cn1cnc2ccc(-c3cncc(NCC(O)CN4CCc5ccccc5C4)n3)cc21 (centres unmarked) [Compound D121] | – | – | 0.101 to 1 µM | > 20 µM |
| OC(COc1cccc(-c2ccc(C(F)(F)F)cc2C(F)(F)F)c1)CN1CCc2ccccc2C1 (centres unmarked) [Compound D124] | – | – | 10 to 40 µM | > 20 µM |
| CN(C)c1ncc(-c2cccc(OCC(O)CN3CCc4ccccc4C3)c2)cn1 (centres unmarked) [Compound D125] | – | – | 1 to 10 µM | 10 to 40 µM |
| O=C(c1cccc(-c2cccc(OCC(O)CN3CCc4ccccc4C3)c2)c1)N1CCOCC1 (centres unmarked) [Compound D126] | – | – | 1 to 10 µM | > 20 µM |
| OC(COc1cccc(-c2ccc(C(F)(F)F)cc2Cl)c1)CN1CCc2ccccc2C1 (centres unmarked) [Compound D127] | – | – | 10 to 40 µM | > 20 µM |
| CS(=O)(=O)Nc1ccc(-c2cccc(OCC(O)CN3CCc4ccccc4C3)c2)cc1 (centres unmarked) [Compound D129] | – | – | 1 to 10 µM | 10 to 40 µM |
| CS(=O)(=O)c1cccc(-c2cccc(OCC(O)CN3CCc4ccccc4C3)c2)c1 (centres unmarked) [Compound D130] | – | – | 1 to 10 µM | > 20 µM |
| CS(=O)(=O)c1ccccc1-c1cccc(OCC(O)CN2CCc3ccccc3C2)c1 (centres unmarked) [Compound D131] | – | – | 1 to 10 µM | > 20 µM |
| OC(COc1cccc(-c2ccccc2C(F)(F)F)c1)CN1CCc2ccccc2C1 (centres unmarked) [Compound D132] | – | – | 1 to 10 µM | > 20 µM |
| COc1ccc(Cl)cc1-c1cccc(OCC(O)CN2CCc3ccccc3C2)c1 (centres unmarked) [Compound D134] | – | – | 1 to 10 µM | > 20 µM |
| COC(=O)c1cccc(-c2cccc(OCC(O)CN3CCc4ccccc4C3)c2)c1 (centres unmarked) [Compound D135] | – | – | > 20 µM | > 20 µM |
| Cn1ncc2ccc(-c3cc(COCC(O)CN4CCc5ccccc5C4)on3)cc21 (centres unmarked) [Compound D136] | – | – | 1 to 10 µM | > 20 µM |
| CC(=O)c1ccc(-c2cccc(OCC(O)CN3CCc4ccccc4C3)c2)cc1 (centres unmarked) [Compound D137] | – | – | 1 to 10 µM | > 20 µM |
| Cc1ccc(F)c(-c2cccc(OCC(O)CN3CCc4ccccc4C3)c2)c1 (centres unmarked) [Compound D138] | – | – | 1 to 10 µM | > 20 µM |
| OC(COc1cccc(-c2cccnc2F)c1)CN1CCc2ccccc2C1 (centres unmarked) [Compound D139] | – | – | 1 to 10 µM | > 20 µM |
| Cn1ccc2cnc(-c3cccc(OCC(O)CN4CCc5ccccc5C4)c3)nc21 (centres unmarked) [Compound D141] | – | – | 0.101 to 1 µM | > 20 µM |
| O=C(Nc1cccc(OCC(O)CN2CCc3ccccc3C2)c1)c1cnccn1 (centres unmarked) [Compound D145] | – | – | 1 to 10 µM | > 20 µM |
| Cn1ccc2ccc(-c3cccc(OCC(O)CN4CCc5ccccc5C4)c3)cc21 (centres unmarked) [Compound D147] | – | – | 1 to 10 µM | 10 to 40 µM |
| O=C1NCc2ccc(-c3cccc(OCC(O)CN4CCc5ccccc5C4)c3)cc21 (centres unmarked) [Compound D148] | – | – | 1 to 10 µM | 10 to 40 µM |
| CN1CCN(c2ccc(-c3cccc(OCC(O)CN4CCc5ccccc5C4)c3)cn2)CC1 (centres unmarked) [Compound D149] | – | – | 1 to 10 µM | 1 to 10 µM |
| CC(C)(C)OCc1cccc(-c2cccc(OCC(O)CN3CCc4ccccc4C3)c2)c1 (centres unmarked) [Compound D150] | – | – | 1 to 10 µM | > 20 µM |
| CN(C)c1ccc(-c2cccc(OCC(O)CN3CCc4ccccc4C3)c2)cc1 (centres unmarked) [Compound D151] | – | – | 1 to 10 µM | > 20 µM |
| NC(=O)c1ccc(-c2cccc(OCC(O)CN3CCc4ccccc4C3)c2)cc1 (centres unmarked) [Compound D152] | – | – | 1 to 10 µM | > 20 µM |
| O=C1COc2ccc(-c3cccc(OCC(O)CN4CCc5ccccc5C4)c3)cc2N1 (centres unmarked) [Compound D156] | – | – | 1 to 10 µM | 10 to 40 µM |
| Cn1nccc1C(=O)Nc1cccc(OCC(O)CN2CCc3ccccc3C2)c1 (centres unmarked) [Compound D160] | – | – | 1 to 10 µM | > 20 µM |
